# Measurements published in patent publication US9790221B2, “Heteroaryl compounds as IRAK inhibitors and uses thereof” (Merck Patent GmbH, priority 2014, dated 2017).
# Where a name gives a salt, the structure may show the parent alone.
# Legend:
# [1] = molecular target: IRAK1 (His-TEV-IRAK1 (194-712)) (Homo sapiens (Human), UniProt P51617); experiment: IRAK1 enzymatic assay; type: biochemical
# Protocol: IRAK1 is a human purified recombinant enzyme (His-TEV-IRAK1 (194-712)). In this assay, IRAK-1 hydrolyses ATP and autophosphorylates. Measurement of IRAK-1 inhibition was performed in streptavidin coated 384well FlashPlate (PerkinElmer #SMP410A).
# His-TEV-IRAK-1 (15 ng/well), ATP (1 μM, [33P]ATP 0.25 μCi/well) and compounds in DMSO (range of concentrations from 20 µM to 1 nM) or controls (2% DMSO) were incubated for 3 hours at 30° C. in assay buffer: Hepes pH7.0 50 mM, Fatty acid-free BSA 0.1%, Dithiothreitol DTT 2 mM, MgCl2 10 mM, EGTA 0.5 mM, Triton-X-100 0.01%. Kinase reaction was stopped by addition of EDTA. Supernatant was discarded, plates were washed three times with 150 mM NaCl and radioactivity was then measured in a Microbeta Trilux reader.
# IRAK4 = IRAK4 (Homo sapiens (Human), UniProt Q9NWZ3); experiment: IRAK4 enzymatic assay; type: biochemical
# Protocol: IRAK4 is a human purified recombinant enzyme ([…]. IRAK4 hydrolyses ATP, autophosphorylates and phosphorylates a Serine/Threonine generic peptidic substrate (STK: 61ST1BLC from CisBio International based in Bagnols/Cèze FR).
# Measurement of IRAK-4 inhibition was performed in streptavidin coated 384well FlashPlate (PerkinElmer #SMP410A). His-TEV-IRAK4 (20 ng/well), ATP (2 μM, [^33P]ATP 0.25 µCi/well), STK1-biotin peptide (300 nM) and compounds in DMSO (range of concentrations from 20 µM to 1 nM) or controls (2% DMSO) were incubated for 3 hours at 30° C. in assay buffer: Hepes pH7.0 50 mM, Fatty acid-free BSA 0.1%, Dithiothreitol DTT 2 mM, MgCl2 10 mM, EGTA 0.5 mM, Tween-20 0.01%, MnCl2 5 mM.
# Kinase reaction was stopped by addition of EDTA. Supernatant was discarded, plates were washed three times with 150 mM NaCl and radioactivity was then measured in a Microbeta Trilux reader.
# Chain of IRAK4 (Q9NWZ3 whole entry): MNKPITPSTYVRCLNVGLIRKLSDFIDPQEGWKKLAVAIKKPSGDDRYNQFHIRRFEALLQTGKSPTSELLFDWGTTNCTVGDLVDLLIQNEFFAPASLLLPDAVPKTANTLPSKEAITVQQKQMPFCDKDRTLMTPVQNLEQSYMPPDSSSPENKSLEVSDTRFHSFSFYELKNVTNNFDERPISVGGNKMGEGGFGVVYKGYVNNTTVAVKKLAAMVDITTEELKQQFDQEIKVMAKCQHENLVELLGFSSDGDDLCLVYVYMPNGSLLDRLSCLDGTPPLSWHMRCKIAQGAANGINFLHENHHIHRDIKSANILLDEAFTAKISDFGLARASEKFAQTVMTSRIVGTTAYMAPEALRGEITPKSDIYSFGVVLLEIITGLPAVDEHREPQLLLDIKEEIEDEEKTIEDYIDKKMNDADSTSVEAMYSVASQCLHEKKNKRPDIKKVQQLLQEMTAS
# Chain of IRAK1 (His-TEV-IRAK1 (194-712)) (P51617 194-712): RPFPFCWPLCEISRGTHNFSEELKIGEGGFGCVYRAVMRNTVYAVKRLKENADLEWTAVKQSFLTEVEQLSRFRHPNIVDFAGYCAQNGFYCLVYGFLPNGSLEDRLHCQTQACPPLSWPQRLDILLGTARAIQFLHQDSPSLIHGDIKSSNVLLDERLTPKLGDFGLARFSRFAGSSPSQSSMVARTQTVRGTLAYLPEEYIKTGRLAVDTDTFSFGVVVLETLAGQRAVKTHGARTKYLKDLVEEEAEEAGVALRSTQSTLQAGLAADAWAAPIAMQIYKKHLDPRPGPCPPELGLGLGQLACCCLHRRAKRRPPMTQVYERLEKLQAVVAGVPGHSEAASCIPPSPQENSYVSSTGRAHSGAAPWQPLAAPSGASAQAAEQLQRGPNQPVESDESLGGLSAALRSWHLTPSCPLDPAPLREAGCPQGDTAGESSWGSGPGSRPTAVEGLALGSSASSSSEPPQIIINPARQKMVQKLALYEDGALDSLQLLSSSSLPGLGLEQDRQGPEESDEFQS
IC50 [1] [nM],IC50 (IRAK4) [nM],Structure (SMILES)
> 5000,100 to 1000,Cn1cc(-c2cccc(-c3ncc(-c4cnn(C)c4)c(NCC4CCNCC4F)n3)c2)cn1 (stereo not shown) [Example 229]
100 to 1000,< 100,Cn1cc(-c2cccc(-c3ncc(-c4cnn(C)c4)c(NCC4(N)CCCCC4)n3)c2)cn1 [Example 252]
> 5000,1000 to 5000,Cn1cc(-c2cccc(-c3ncc(-c4cnn(C)c4)c(NCCC4CCCCN4)n3)c2)cn1 (stereo not shown) [Example 251]
> 5000,100 to 1000,"CC(=O)NC[C@H]1C[C@H](Nc2nc(-c3cccc(-c4cnn(C)c4)c3)ncc2-c2cnn(C)c2)C1 [Example 212, N-(3-{5-(1-Methyl-1H-pyrazol-4-yl)-2-[3-(1-methyl-1H-pyrazol-4-yl)-phenyl]-pyrimidin-4-ylamino}-cyclobutylmethyl)-acetamide]"
1000 to 5000,100 to 1000,Cn1cc(-c2cccc(-c3ncc(-c4ccn(C)n4)c(NCCCO)n3)c2)cn1 [Example 68]
> 5000,< 100,Cn1cc(-c2cccc(-c3ncc(-c4ccn(C)n4)c(N[C@H]4CC[C@H](O)CC4)n3)c2)cn1 [Example 147]
> 5000,100 to 1000,Cn1cc(-c2cccc(-c3ncc(-c4cnn(C)c4)c(NCCC4CCCCN4S(C)(=O)=O)n3)c2)cn1 (stereo not shown) [Example 259]
1000 to 5000,100 to 1000,Cn1cc(-c2cccc(-c3ncc(-c4cnn(C)c4)c(NCCCN4CCOC4=O)n3)c2)cn1 [Example 78]
100 to 1000,1000 to 5000,Cn1cc(-c2cccc(-c3ncc(-c4ccn(C)n4)c(NCCN4CCCC4=O)n3)c2)cn1 [Example 70]
> 5000,< 100,Cn1cc(-c2cccc(-c3ncc(-c4cnn(C)c4)c(NC[C@H]4CC[C@@H](O)CC4)n3)c2)cn1 [Example 155]
1000 to 5000,< 100,CC(=O)NCC1CCC(Nc2nc(-c3cccc(-c4cnn(C)c4)c3)ncc2-c2cnn(C)c2)CC1 (stereo not shown) [Example 198]
1000 to 5000,100 to 1000,Cn1cc(-c2cccc(-c3ncc(-c4ccn(C)n4)c(NCC4(O)CCNCC4(C)C)n3)c2)cn1 (stereo not shown) [Example 114]
> 5000,1000 to 5000,Cn1cc(-c2cccc(-c3ncc(-c4cnn(C)c4)c(N4CCC[C@H]4CO)n3)c2)cn1 [Example 230]
1000 to 5000,100 to 1000,Cn1cc(-c2cccc(-c3ncc(-c4cnn(C)c4)c(N4CCC(O)C4)n3)c2)cn1 (stereo not shown) [Example 218]
1000 to 5000,100 to 1000,"Cn1cc(-c2cccc(-c3ncc(-c4ccn(C)n4)c(NC4CCC4)n3)c2)cn1 [Example 27, Cyclobutyl-{5-(1-methyl-1H-pyrazol-3-yl)-2-[3-(1-methyl-1H-pyrazol-4-yl)-phenyl]-pyrimidin-4-yl}-amine]"
1000 to 5000,1000 to 5000,Cn1cc(-c2cccc(-c3ncc(-c4cnn(C)c4)c(NCCN4CCNC4=O)n3)c2)cn1 [Example 58]
> 5000,1000 to 5000,CN(CC1CC(F)(F)C1)c1nc(-c2cccc(-c3cnn(C)c3)c2)ncc1-c1ccn(C)n1 [Example 142]
1000 to 5000,100 to 1000,"Cn1cc(-c2cccc(-c3ccc(-c4cnn(C5CCNCC5)c4)cn3)n2)cn1 [Example 2, 6′-(1-Methyl-1H-pyrazol-4-yl)-5-(1-piperidin-4-yl-1H-pyrazol-4-yl)-[2,2′]bipyridinyl]"
100 to 1000,< 100,Cn1cc(-c2cccc(-c3ncc(-c4cnn(C)c4)c(NCCCCNS(C)(=O)=O)n3)c2)cn1 [Example 177]
1000 to 5000,< 100,Cn1cc(-c2cccc(-c3ncc(-c4cnn(C)c4)c(NC[C@H]4CC[C@@H](O)C4)n3)c2)cn1 (racemic) [Example 164]
100 to 1000,100 to 1000,Cn1cc(-c2cccc(-c3ncc(-c4cnn(C)c4)c(NC4CCCCN(S(C)(=O)=O)C4)n3)c2)cn1 (stereo not shown) [Example 178]
1000 to 5000,100 to 1000,Cn1cc(-c2cccc(-c3ncc(-c4ccn(C)n4)c(NCCCC(C)(C)O)n3)c2)cn1 [Example 140]
1000 to 5000,100 to 1000,Cn1cc(-c2cccc(-c3ncc(-c4cnn(C)c4)c(N4CC[C@@H](NS(C)(=O)=O)C4)n3)c2)cn1 [Example 247]

IC50 [1] [nM],IC50 (IRAK4) [nM],Structure (SMILES)
> 5000,100 to 1000,Cn1cc(-c2cccc(-c3ncc(-c4cnn(C)c4)c(NCC4(O)CCNCC4)n3)c2)cn1 [Example 240]
> 5000,< 100,Cn1cc(-c2cccc(-c3ncc(-c4cnn(C)c4)c(NC4C5CCCC4CC(NS(C)(=O)=O)C5)n3)c2)cn1 (stereo not shown) [Example 159]
1000 to 5000,100 to 1000,Cn1cc(-c2cccc(-c3ncc(-c4ccn(C)n4)c(NC[C@H]4CCNC4)n3)c2)cn1 [Example 104]
100 to 1000,< 100,Cn1cc(-c2cccc(-c3ncc(-c4cnn(C)c4)c(NCCC4(O)CCCC4)n3)c2)cn1 [Example 227]
> 5000,1000 to 5000,"Cn1cc(-c2cccc(-c3ncc(-c4ccn(C)n4)c(OCC4CCCCO4)n3)c2)cn1 (stereo not shown) [Example 8, 5-(1-Methyl-1H-pyrazol-3-yl)-2-[3-(1-methyl-1H-pyrazol-4-yl)-phenyl]-4-(tetrahydro-pyran-2-ylmethoxy)-pyrimidine]"
> 5000,> 5000,"Cn1cc(-c2cccc(-c3ncc(-c4cnn(C)c4)c(NCC(=O)O)n3)c2)cn1 [Example 26, {5-(1-Methyl-1H-pyrazol-4-yl)-2-[3-(1-methyl-1H-pyrazol-4-yl)-phenyl]-pyrimidin-4-ylamino}-acetic Acid Formate]"
> 5000,1000 to 5000,Cn1cc(-c2cccc(-c3ncc(-c4cnn(C)c4)c(NCCCN4CCCC4=O)n3)c2)cn1 [Example 40]
> 5000,< 100,Cn1cc(-c2cccc(-c3ncc(-c4ccn(C)n4)c(N[C@H]4CCC[C@@H]4O)n3)c2)cn1 (racemic) [Example 95]
> 5000,> 5000,Cn1cc(-c2cccc(-c3ncc(-c4ccn(C)n4)c(NC4CC(F)(F)C4)n3)c2)cn1 [Example 90]
> 5000,1000 to 5000,Cn1cc(-c2cccc(-c3ncc(-c4cnn(C)c4)c(NCCN)n3)c2)cn1 [Example 34]
> 5000,100 to 1000,Cn1cc(-c2cccc(-c3ncc(-c4cnn(C)c4)c(NC[C@H]4CCNC[C@H]4O)n3)c2)cn1 (racemic) [Example 126]
1000 to 5000,100 to 1000,Cn1cc(-c2cccc(-c3ncc(-c4cnn(C)c4)c(NCC4CCCC4N)n3)c2)cn1 (stereo not shown) [Example 200]
1000 to 5000,< 100,Cn1cc(-c2cccc(-c3ncc(-c4cnn(C)c4)c(NC4CCC(=O)NC4)n3)c2)cn1 (stereo not shown) [Example 103]
100 to 1000,< 100,Cn1cc(-c2cccc(-c3ncc(-c4cnn(C)c4)c(NCC4CCOC4)n3)c2)cn1 (racemic) [Example 166]
1000 to 5000,100 to 1000,Cn1cc(-c2cccc(-c3ncc(-c4cnn(C)c4)c(N4CCC(CO)C4)n3)c2)cn1 (stereo not shown) [Example 261]
100 to 1000,100 to 1000,CN(CCC#N)c1nc(-c2cccc(-c3cnn(C)c3)c2)ncc1-c1cnn(C)c1 [Example 222]
> 5000,1000 to 5000,"Cn1cc(-c2cccc(-c3ncc(-c4cnn(C)c4)c(N4CCCC(CN)C4)n3)c2)cn1 (stereo not shown) [Example 6, C-(1-{5-(1-Methyl-1H-pyrazol-4-yl)-2-[3-(1-methyl-1H-pyrazol-4-yl)-phenyl]-pyrimidin-4-yl}-piperidin-3-yl)-methylamine Hydrochoride]"
> 5000,100 to 1000,CC(=O)N1CCCCC1CCNc1nc(-c2cccc(-c3cnn(C)c3)c2)ncc1-c1cnn(C)c1 (stereo not shown) [Example 258]
1000 to 5000,100 to 1000,Cn1cc(-c2cccc(-c3ncc(-c4ccn(C)n4)c(NC4CC4)n3)c2)cn1 [Example 29]
1000 to 5000,100 to 1000,Cn1cc(-c2cccc(-c3ncc(-c4ccn(C)n4)c(NC4CCC(=O)NC4)n3)c2)cn1 (stereo not shown) [Example 102]
> 5000,100 to 1000,CN1CCOC(CNc2nc(-c3cccc(-c4cnn(C)c4)c3)ncc2-c2cnn(C)c2)C1 (stereo not shown) [Example 105]
> 5000,100 to 1000,Cn1cc(-c2cccc(-c3ncc(-c4ccn(C)n4)c(N[C@H]4CCNC4)n3)c2)cn1 [Example 117]

Structure (SMILES),IC50 [1] [nM],IC50 (IRAK4) [nM]
Cn1cc(-c2cccc(-c3ncc(-c4ccn(C)n4)c(N[C@H]4C[C@@H](S(C)(=O)=O)C4)n3)c2)cn1 [Example 79],100 to 1000,100 to 1000
Cn1cc(-c2cccc(-c3ncc(-c4cnn(C)c4)c(NC4CC5CCC4N5)n3)c2)cn1 (stereo not shown) [Example 193],> 5000,100 to 1000
